# Results as given in US8053573B2, “Monomer 5, 6-diphenyl-1.2.4-traizinic derivatives and the use thereof” (Pierre Fabre Dermo-Cosmetique, priority 2004, dated 2011).
# Experiment: Spectral characteristics: molar extinction coefficient and specific absorbance
# Format: physicochemical
# Details: A1cm^1%; ethyl acetate, 10 μg/ml
# Source text: The calculation of the molar extinction coefficient (ε) is made from the Beer-Lambert law:
# [formula] Wherein: A=absorbance I0=intensity of the incident light I=intensity of the transmitted light ε=molar extinction (or molar absorbance) coefficient in M^−1 cm^−1 l=path length in cm c=concentration in mol/l
# The molar extinction coefficient can be expressed with respect to a given mass of the product. It thus makes it possible to be able to compare the coefficients of extinction between products for the same given quantity. This quantity is 1% by weight. The molar extinction coefficient thus becomes the specific absorbance (A1cm^1%).
# [formula] Wherein: A1cm^1%=specific absorbance ε=molar extinction coefficient M=molar mass
# The spectral characteristics of the compounds in comparison with commercial filters at a concentration of 10 μg/ml are summarized in tables 2-1 and 2-2.
# Procedure: The products are dissolved in ethyl acetate to a concentration of 10 μg/ml. The spectra are measured using a dual-beam spectrophotometer (Varian CARY 50 Scan) between 290 nm and 400 nm.
Structure (SMILES),Maximum specific absorbance UVA,Maximum specific absorbance UVB
"COc1ccc(-c2nnc(-c3ccc(C#N)cc3)nc2-c2ccc(OC)cc2)cc1 [JR107, 3-(4-cyanophenyl)-5,6-bis(4-methoxyphenyl)-1,2,4-triazine]",498 at,688 at
"CC(C)(C)CC(C)(C)c1cc(Cc2cc(C(C)(C)CC(C)(C)C)cc(-n3nc4ccccc4n3)c2O)c(O)c(-n2nc3ccccc3n2)c1 [Tinosorb M ®, reference compound]",552,556
"Oc1ccc(-c2nnc(-c3ccccc3)c(-c3ccccc3)n2)cc1 [JR68, 3-(4-hydroxyphenyl)-5,6-diphenyl-1,2,4-triazine]",424,
"COc1ccc(-c2nnc(-c3cccc(C#N)c3)nc2-c2ccc(OC)cc2)cc1 [JR113, 3-(3-cyanophenyl)-5,6-bis(4-methoxyphenyl)-1,2,4-triazine]",570,721
"COc1ccc(-c2nnc(-c3ccc(OC)cc3)c(-c3ccc(OC)cc3)n2)cc1 [JR70, 3-(4-methoxyphenyl)-5,6-bis(4-methoxyphenyl)-1,2,4-triazine]",,982

# Same assay, conditions: ethyl acetate, 10 μg/ml
Structure (SMILES),Maximum molar extinction coefficient UVA [M⁻¹ cm⁻¹],Maximum molar extinction coefficient UVB,Wavelength of maximum molar extinction coefficient UVA,Wavelength of maximum molar extinction coefficient UVB,Wavelength of maximum specific absorbance UVA,Wavelength of maximum specific absorbance UVB
"COc1ccc(-c2nnc(-c3ccc(C#N)cc3)nc2-c2ccc(OC)cc2)cc1 [JR107, 3-(4-cyanophenyl)-5,6-bis(4-methoxyphenyl)-1,2,4-triazine]",19600,27100 at M^−1 cm^−1,at 350,300,350,300
"CC(C)(C)CC(C)(C)c1cc(Cc2cc(C(C)(C)CC(C)(C)C)cc(-n3nc4ccccc4n3)c2O)c(O)c(-n2nc3ccccc3n2)c1 [Tinosorb M ®, reference compound]",36400,36600 M⁻¹ cm⁻¹,at 345,at 305,at 345,at 305
"Oc1ccc(-c2nnc(-c3ccccc3)c(-c3ccccc3)n2)cc1 [JR68, 3-(4-hydroxyphenyl)-5,6-diphenyl-1,2,4-triazine]",13800,,at 330,,at 330,
"COc1ccc(-c2nnc(-c3cccc(C#N)c3)nc2-c2ccc(OC)cc2)cc1 [JR113, 3-(3-cyanophenyl)-5,6-bis(4-methoxyphenyl)-1,2,4-triazine]",22469,28800 M⁻¹ cm⁻¹,at 340,at 295,at 340,at 295
"COc1ccc(-c2nnc(-c3ccc(OC)cc3)c(-c3ccc(OC)cc3)n2)cc1 [JR70, 3-(4-methoxyphenyl)-5,6-bis(4-methoxyphenyl)-1,2,4-triazine]",,29200 M⁻¹ cm⁻¹,,at 310,,at 310

# Experiment: In vitro SPF in a chemical solvent (Diffey and Robson)
# Format: physicochemical
# Details: ethyl acetate solution, 10 μg/ml, transmittance 290-400 nm
# Description: The in vitro methods of determining the protective effectiveness of sun products consist of measuring by transmission spectrophotometry the absorption spectrum of the filter in solution or of the product applied on a substrate with the aim of simulating the surface of the skin. The effectiveness against UVB and/or UVA rays, or the effect on the cutaneous response, are then determined by calculation, taking into account or not the UV radiation action spectrum for the damage considered.
# The Sayre/Agin and Diffey/Robson method, used since the 1990s, involves a comparative measurement, with the aid of an integrating-sphere spectroradiometer, of the transition from 290 nm to 400 nm in 5 nm steps, the sample being subjected to UV radiation from a stable known source covering the whole of the UV spectrum (unfiltered xenon).
# Diffey and Robson evaluate the erythemal response by the following calculation:
# [formula] E(λ)=spectral irradiation in W(m^−2) (nm^−1) at 40° N sun at 20° zenith angle ε=erythematous capacity
# The Diffey and Robson formula makes it possible to determine SPF from the measurement of transmittance between 290 nm and 400 nm. Transmittance is measured in solution in ethyl acetate at a concentration of 10 μg/ml using a UV-visible spectrophotometer (Varian CARY 50 Scan).
row,Structure (SMILES),SPF
1,"CC(C)(C)CC(C)(C)c1cc(Cc2cc(C(C)(C)CC(C)(C)C)cc(-n3nc4ccccc4n3)c2O)c(O)c(-n2nc3ccccc3n2)c1 [Tinosorb M ®, reference compound]",54.07
2,"COc1ccc(-c2nnc(-c3cccc(C#N)c3)nc2-c2ccc(OC)cc2)cc1 [JR113, 3-(3-cyanophenyl)-5,6-bis(4-methoxyphenyl)-1,2,4-triazine]",67.74

# Experiment: Spectral characteristics: molar extinction coefficient and specific absorbance
# Format: physicochemical
# Details: A1cm^1%; ethyl acetate, 10 μg/ml
# Remark: another data set of the same source
row,Structure (SMILES),Maximum specific absorbance UVC
1,"COc1ccc(-c2nnc(-c3ccc(C#N)cc3)nc2-c2ccc(OC)cc2)cc1 [JR107, 3-(4-cyanophenyl)-5,6-bis(4-methoxyphenyl)-1,2,4-triazine]",655 at
2,"Oc1ccc(-c2nnc(-c3ccccc3)c(-c3ccccc3)n2)cc1 [JR68, 3-(4-hydroxyphenyl)-5,6-diphenyl-1,2,4-triazine]",702

# Same assay, conditions: ethyl acetate, 10 μg/ml
Structure (SMILES),Maximum molar extinction coefficient UVC [M⁻¹ cm⁻¹],Wavelength of maximum molar extinction coefficient UVC,Wavelength of maximum specific absorbance UVC
"COc1ccc(-c2nnc(-c3ccc(C#N)cc3)nc2-c2ccc(OC)cc2)cc1 [JR107, 3-(4-cyanophenyl)-5,6-bis(4-methoxyphenyl)-1,2,4-triazine]",25800,at 270,270
"Oc1ccc(-c2nnc(-c3ccccc3)c(-c3ccccc3)n2)cc1 [JR68, 3-(4-hydroxyphenyl)-5,6-diphenyl-1,2,4-triazine]",22800,at 280,at 280

# Experiment: Spectral distribution in UVA and UVB (290-400 nm)
# Format: physicochemical
# Details: range from 290 nm to 400 nm
# Source text: The products tested are classified according to spectral distribution in UVA and UVB in a range from 290 nm to 400 nm.
# It is possible to differentiate them according to their spectral distribution:
# Products with a narrow spectrum: • Products absorbing in the range between 280 nm and 320 nm (UVB) • Products absorbing in the range between 320 nm and 400 nm (UVA) Products with a broad spectrum: • Products absorbing in UVB (280-320 nm) and UVA-II […] • Products covering UVB and UVA (280-400 nm).
row,Structure (SMILES),Spectral distribution
1,"COc1ccc(-c2nnc(-c3ccc(C#N)cc3)nc2-c2ccc(OC)cc2)cc1 [JR107, 3-(4-cyanophenyl)-5,6-bis(4-methoxyphenyl)-1,2,4-triazine]",absorb in UVB and UVA
2,"CC(C)(C)CC(C)(C)c1cc(Cc2cc(C(C)(C)CC(C)(C)C)cc(-n3nc4ccccc4n3)c2O)c(O)c(-n2nc3ccccc3n2)c1 [Tinosorb M ®, reference compound]",absorb in UVB and UVA
3,"Oc1ccc(-c2nnc(-c3ccccc3)c(-c3ccccc3)n2)cc1 [JR68, 3-(4-hydroxyphenyl)-5,6-diphenyl-1,2,4-triazine]",absorb in UVB (280-320 nm) and UVA-II (280-340 nm)
4,"COc1ccc(-c2nnc(-c3cccc(C#N)c3)nc2-c2ccc(OC)cc2)cc1 [JR113, 3-(3-cyanophenyl)-5,6-bis(4-methoxyphenyl)-1,2,4-triazine]",absorb in UVB and UVA
5,"COc1ccc(-c2nnc(-c3ccc(OC)cc3)c(-c3ccc(OC)cc3)n2)cc1 [JR70, 3-(4-methoxyphenyl)-5,6-bis(4-methoxyphenyl)-1,2,4-triazine]",absorb in UVB

# Experiment: Photostability in solution in a chemical solvent (Suntest CPS+)
# Format: physicochemical
# Details: 25 μg deposited from methanol, Suntest irradiation 10 MED, absorbance vs non-irradiated control; in % (unit assumed)
# Source text: A Suntest CPS+ (Atlas, Linsengenicht/Altenhasslan, Germany) was used. The Suntest makes it possible to reproduce the solar spectrum and thus to carry out exposures inside at any time without weather constraints.
# The radiance of the solar simulator was carefully measured with a spectroradiometer (MSS 2044, Bielefeld, Germany). UVB and UVA intensities were 0.49 mW/cm^2 and 6.32 mW/cm^2, respectively. The MED value defined by COLIPA is 5.6 J/cm^2 in total UV (22). The UV total (UVA+UVB) accounts for 14.8% of the energy delivered by the lamp (power 460 W/m^2). An irradiation dose equivalent to 1 MED corresponds to 37.83 J/cm^2 (in total spectrum) delivered by the lamp.
# The Suntest test duration is calculated using the following formula: t=H/E with: […]
# The solutions of the compounds are prepared at a concentration of 500 μg/ml in methanol. 50 μl (25 μg) of each solution are deposited in a crystallizer, then irradiated in the Suntest at 5, 10 and/or 20 MED. A non-irradiated control is prepared (deposit of 50 μl of solution and addition of 2.450 ml of methanol). The solvent evaporates during irradiation and the products are taken up in 2.5 ml of methanol. After irradiation, the absorbance of each solution is measured with the UV-visible spectrophotometer (Varian CARY 50 Scan).
row,Structure (SMILES),Photostability at 10 MED mean
1,"COc1ccc(-c2nnc(-c3ccc(C#N)cc3)nc2-c2ccc(OC)cc2)cc1 [JR107, 3-(4-cyanophenyl)-5,6-bis(4-methoxyphenyl)-1,2,4-triazine]",58.45
2,"Oc1ccc(-c2nnc(-c3ccccc3)c(-c3ccccc3)n2)cc1 [JR68, 3-(4-hydroxyphenyl)-5,6-diphenyl-1,2,4-triazine]",98.2
3,"COc1ccc(-c2nnc(-c3cccc(C#N)c3)nc2-c2ccc(OC)cc2)cc1 [JR113, 3-(3-cyanophenyl)-5,6-bis(4-methoxyphenyl)-1,2,4-triazine]",98.07
4,"COc1ccc(-c2nnc(-c3ccc(OC)cc3)c(-c3ccc(OC)cc3)n2)cc1 [JR70, 3-(4-methoxyphenyl)-5,6-bis(4-methoxyphenyl)-1,2,4-triazine]",44.51

# Same assay, conditions: 25 μg deposited from methanol, Suntest irradiation 20 MED, absorbance vs non-irradiated control; in % (unit assumed)
row,Structure (SMILES),Photostability at 20 MED mean
1,"COc1ccc(-c2nnc(-c3ccc(C#N)cc3)nc2-c2ccc(OC)cc2)cc1 [JR107, 3-(4-cyanophenyl)-5,6-bis(4-methoxyphenyl)-1,2,4-triazine]",47.81
2,"Oc1ccc(-c2nnc(-c3ccccc3)c(-c3ccccc3)n2)cc1 [JR68, 3-(4-hydroxyphenyl)-5,6-diphenyl-1,2,4-triazine]",95.33
3,"COc1ccc(-c2nnc(-c3cccc(C#N)c3)nc2-c2ccc(OC)cc2)cc1 [JR113, 3-(3-cyanophenyl)-5,6-bis(4-methoxyphenyl)-1,2,4-triazine]",97.67
4,"COc1ccc(-c2nnc(-c3ccc(OC)cc3)c(-c3ccc(OC)cc3)n2)cc1 [JR70, 3-(4-methoxyphenyl)-5,6-bis(4-methoxyphenyl)-1,2,4-triazine]",30.83
